Where a name gives a salt, the structure may show the parent alone.
Tests used:
[1] = tested on: carrageenan-induced edema; assay: carrageenan edema test in rats; format: in vivo, rat (female Sprague-Dawley); conditions: for change in vivo at 80 mg/kg: Rattus norvegicus, po, 80 mg/kg p.o., 30 min before carrageenan, edema weight 3 h after, vs control, preliminary, read-out: Potentiation of the carrageenan edema, %; for significant potentiation of the carrageenan edema: dose within the range 10-160 mg/kg p.o.
Excerpt: Another test, in which the effect of a drug corresponds to the effects obtained in the tests mentioned above, and which can therefore also be used, is the well-established carrageenan edema test in rats (5). Comparative evaluation of compounds of the present invention in the three tests mentioned has shown that compounds which increase the extent of the delayed hypersensitivity reaction in the pertussis vaccine pleurisy test and in the adjuvant arthritis test also increase the extent of carrageenan-induced edema in the carrageenan edema test, thus providing a further tool for the determination of enhancement of cell-mediated immunity.
This example illustrates the effect of the compounds of the general formula I in the carrageenan edema test in rats.
A modification of a method described in (5) was used. Female Sprague-Dawleyrats weighing 110-120 g was used. At least 10 animals were used in each experimental group. Foot edema was induced by injecting carrageenan in 0.9% NaCl into the plantar surface of the right hind paw of the rats.
The substances suspended in aqueous methocel solution 10 ml/kg were administered intragastrically 30 minutes before the injection of carrageenan. The control groups were given methocel solution 10 ml/kg.
Three hours after carrageenan injection the animals were killed. The hind feet were cut off and weighed. The difference in weight of the injected right paw and the uninjected left paw was called edema weight.
The effect of the substances was assessed by the edema weight expressed in percent after comparison with the control groups.

[2] = tested on: delayed hypersensitivity reaction (pertussis vaccine pleurisy); assay: pertussis vaccine pleurisy test in rats; format: in vivo, rat (male Sprague-Dawley); conditions: 10 mg/kg p.o.; for change in vivo at 10 mg/kg: Rattus norvegicus, po, 48 h, once daily day 10 to day 13, vs control, preliminary, read-out: Enhancement of the delayed hypersensitivity reaction assessed by the exudate vol.
Excerpt: A useful test for the evaluation of the effect of chemical compounds on the immune system is the pertussis vaccine pleurisy test in rats. Compounds which enhance the response in this delayed hypersensitivity reaction are considered to stimulate cell-mediated immunity (4).
This example illustrates the effect of the compounds of the general formula I in the pertussis vaccine pleurisy test.
Pertussis vaccine pleurisy is a useful test for the evaluation of the effect of chemical compounds on the immune system. Compounds which enhance the response in this delayed hypersensitivity reaction are considered to stimulate cell-mediated immunity.
A modification of a method described in (4) was used. Male Sprague-Dawley rats weighing 250-275 g were used. At least ten animals were used in each group.
Equal volumes of Freund's incomplete adjuvant and a suspension of heat killed Bordetella pertussis organisms were mixed. To sensitize animals, day 0, 0.2 ml of a mixture containing 0.036×10^10 organisms/ml was injected into the dorsal surface of one hind paw and one forepaw.
The animals were challenged on day 12 with 0.1 ml of a mixture containing 0.25×10^10 organisms/ml that was injected intrapleurally. 48 hours after challenge, day 14, the volume of the exudate in the pleural cavity was measured.
The substances suspended in aqueous methocel solution 10 ml/kg were given intragastrically once daily from day 10 to day 13. The control groups were given methocel solution 10 ml/kg.
The effect of the substances was assessed by the exudate volume expressed in percent after comparison with the control groups.

Row | Structure (SMILES) | change in vivo at 80 mg/kg [1] | significant potentiation of the carrageenan edema [1] | further results
1 | O=C(Nc1ccccc1)c1c(O)c2ccccc2n(-c2ccccc2)c1=O [1:3, N-1-diphenyl-1,2-dihydro-4-hydroxy-2-oxo-quinoline-3-carboxamide] | 41% | – | –
2 | CN(C)c1ccc2c(c1)c(O)c(C(=O)Nc1ccccc1)c(=O)n2C [1:5, N-phenyl-1,2-dihydro-6-dimethylamino-4-hydroxy-1-methyl-2-oxo-quinoline-3-carboxamide] | 28% | – | change in vivo at 10 mg/kg [2]: 47%
3 | Cn1c(=O)c(C(=O)Nc2ccccc2Cl)c(O)c2ccccc21 [1:8, N-/2-chlorophenyl/-1,2-dihydro-4-hydroxy-1-methyl-2-oxo-quinoline-3-carboxamide] | 21% | – | change in vivo at 10 mg/kg [2]: 27%
4 | CC(C)Cn1c(=O)c(C(=O)Nc2ccccc2)c(O)c2ccccc21 [1:15, N-phenyl-1,2-dihydro-4-hydroxy-1-isobutyl-2-oxo-quinoline-3-carboxamide] | 30% | – | –
5 | Cn1c(=O)c(C(=O)Nc2ccccc2)c(O)c2ccc(Cl)cc21 [1:17, N-phenyl-7-chloro-1,2-dihydro-4-hydroxy-1-methyl-2-oxo-quinoline-3-carboxamide] | 43% | – | –
6 | Cn1c(=O)c(C(=O)Nc2ccccc2)c(O)c2cc(Cl)ccc21 [1:18, N-phenyl-6-chloro-1,2-dihydro-4-hydroxy-1-methyl-2-oxo-quinoline-3-carboxamide] | 36% | – | –
7 | CNc1ccc(NC(=O)c2c(O)c3ccccc3n(C)c2=O)cc1 [1:21, N-/4-methylaminophenyl/-1,2-dihydro-4-hydroxy-1-methyl-2-oxo-quinoline-3-carboxamide] | 22% | – | –
8 | CCN(CC)c1ccc(NC(=O)c2c(O)c3ccccc3n(C)c2=O)cc1 [1:23, N-/4-diethylaminophenyl/-1,2-dihydro-4-hydroxy-1-methyl-2-oxo-quinoline-3-carboxamide] | 29% | – | –
9 | CC(=O)Nc1ccc(NC(=O)c2c(O)c3ccccc3n(C)c2=O)cc1 [1:41, N-(4-acetylaminophenyl)-1,2-dihydro-4-hydroxy-1-methyl-2-oxo-quinoline-3-carboxamide] | – | potentiate significantly | significant enhancing effect in the pertussis vaccine pleurisy test [2]: significant enhancing effect
10 | CCNc1ccc(NC(=O)c2c(O)c3ccccc3n(C)c2=O)cc1 [1:45, N-(4-ethylaminophenyl)-1,2-dihydro-4-hydroxy-1-methyl-2-oxo-quinoline-3-carboxamide] | 47% | – | –
11 | Cc1ccc2c(c1)c(O)c(C(=O)Nc1ccccc1)c(=O)n2C [1:46, N-phenyl-1,2-dihydro-1,6-dimethyl-4-hydroxy-2-oxo-quinoline-3-carboxamide] | 32% | – | –
12 | COc1c(C(=O)Nc2ccc(N(C)C)cc2)c(=O)n(C)c2ccccc12 [6:3, N-(4-dimethylaminophenyl)-1,2-dihydro-4-methoxy-1-methyl-2-oxo-quinoline-3-carboxamide] | 32% | – | –
13 | Cn1c(=O)c(C(=O)Nc2ccccn2)c(O)c2ccccc21 [7:2, N-/2-pyridyl/-1,2-dihydro-4-hydroxy-1-methyl-2-oxo-quinoline-3-carboxamide] | 44% | – | –
14 | Cc1csc(NC(=O)c2c(O)c3ccccc3n(C)c2=O)n1 [7:3, N-/2-(4-methyl-thiazolyl)/-1,2-dihydro-4-hydroxy-1-methyl-2-oxo-quinoline-3-carboxamide] | 47% | – | –
15 | CCCn1c(=O)c(C(=O)Nc2ccccn2)c(O)c2ccccc21 [7:10, N-/2-pyridyl/-1,2-dihydro-4-hydroxy-2-oxo-1-n-propyl-quinoline-3-carboxamide] | 24% | – | change in vivo at 10 mg/kg [2]: 41%
16 | Cn1c(=O)c(C(=O)Nc2ccc(N)cc2)c(O)c2ccccc21 [8:1, N-(4-aminophenyl)-1,2-dihydro-4-hydroxy-1-methyl-2-oxo-quinoline-3-carboxamide] | – | potentiate significantly | –

Row | Structure (SMILES) | change in vivo at 80 mg/kg [1] | significant potentiation of the carrageenan edema [1] | further results
17 | Cn1c(=O)c(C(=O)Nc2ccccc2)c(N)c2ccccc21 [10:1, N-phenyl-4-amino-1,2-dihydro-1-methyl-2-oxo-quinoline-3-carboxamide] | 36% | – | –
18 | Cn1c(=N)c(C(=O)Nc2ccccc2)c(O)c2ccccc21 [11:1, N-phenyl-1,2-dihydro-4-hydroxy-2-imino-1-methyl-quinoline-3-carboxamide] | 46% | – | –
19 | O=C(Nc1ccc(N2CCCC2)cc1)c1c(O)c2cccc3c2n(c1=O)CC3 [12:7, N-(4-pyrrolidinophenyl)-1,2-dihydro-1,8-ethylene-4-hydroxy-2-oxo-quinoline-3-carboxamide, hydrochloride] | – | potentiate significantly | significant enhancing effect in the pertussis vaccine pleurisy test [2]: significant enhancing effect
20 | CN(C)c1ccc(NC(=O)c2c(O)c3cccc4c3n(c2=O)CC4)cc1 [12:8, N-(4-dimethylaminophenyl)-1,2-dihydro-1,8-ethylene-4-hydroxy-2-oxo-quinoline-3-carboxamide] | 51% | – | change in vivo at 10 mg/kg [2]: 29%
21 | Cc1csc(NC(=O)c2c(O)c3cc(N(C)C)cc4c3n(c2=O)CCC4)n1 [14:7, N-(4-methyl-2-thiazolyl)-1,2-dihydro-6-dimethylamino-4-hydroxy-2-oxo-1,8-trimethylene-quinoline-3-carboxamide] | – | potentiate significantly | –
22 | O=C(Nc1cnccn1)c1c(O)c2cccc3c2n(c1=O)CC3 [14:9, N-pyrazinyl-1,2-dihydro-1,8-ethylene-4-hydroxy-2-oxo-quinoline-3-carboxamide] | 21% | – | –
23 | O=C(Nc1cccnn1)c1c(O)c2cc(O)cc3c2n(c1=O)CC3 [14:12, N-(3-pyridazinyl)-1,2-dihydro-4,6-dihydroxy-1,8-ethylene-2-oxo-quinoline-3-carboxamide] | – | potentiate significantly | –
24 | COc1c(C(=O)Nc2nccs2)c(=O)n2c3c(cccc13)CC2 [16:1, N-(2-thiazolyl)-1,2-dihydro-1,8-ethylene-4-methoxy-2-oxo-quinoline-3-carboxamide] | – | potentiate significantly | –
25 | COc1c(C(=O)Nc2nccs2)c(=O)n(C)c2ccccc12 [17:1, N-(2-thiazolyl)-1,2-dihydro-4-methoxy-1-methyl-2-oxo-quinoline-3-carboxamide] | – | potentiate significantly | –
26 | COc1c(C(=O)Nc2ccccc2)c(=O)n2c3c(cccc13)CC2 [18:1, N-phenyl-1,2-dihydro-1,8-ethylene-4-methoxy-2-oxo-quinoline-3-carboxamide] | – | potentiate significantly | –
27 | COc1c(C(=O)Nc2ccccc2)c(=O)n2c3c(cccc13)CCC2 [18:2, N-phenyl-1,2-dihydro-4-methoxy-2-oxo-1,8-trimethylene-quinoline-3-carboxamide] | – | potentiate significantly | –
28 | CCOc1c(C(=O)Nc2ccc(N(C)C)cc2)c(=O)n2c3c(cccc13)CC2 [18:3, N-(4-dimethylaminophenyl)-1,2-dihydro-4-ethoxy-1,8-ethylene-2-oxo-quinoline-3-carboxamide] | – | potentiate significantly | –
29 | COc1ccc2c(c1)c(O)c(C(=O)N(C)c1ccccc1)c(=O)n2C [20:5, N-methyl-N-phenyl-1,2-dihydro-4-hydroxy-6-methoxy-1-methyl-2-oxo-quinoline-3-carboxamide] | – | potentiate significantly | significant enhancing effect in the pertussis vaccine pleurisy test [2]: significant enhancing effect
30 | CN(C(=O)c1c(O)c2ccccc2n(C)c1=O)c1ccc(N2CCCCC2)cc1 [20:9, N-(4-piperidinophenyl)-N-methyl-1,2-dihydro-4-hydroxy-1-methyl-2-oxo-quinoline-3-carboxamide] | – | potentiate significantly | significant enhancing effect in the pertussis vaccine pleurisy test [2]: significant enhancing effect
31 | CCn1c(=O)c(C(=O)N(C)c2ccccc2)c(O)c2ccccc21 [20:10, N-methyl-N-phenyl-1,2-dihydro-1-ethyl-4-hydroxy-2-oxo-quinoline-3-carboxamide] | – | potentiate significantly | significant enhancing effect in the pertussis vaccine pleurisy test [2]: significant enhancing effect
